Measured values as given in PubChem BioAssay (NCI).
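The concentration for 50% growth inhibition is given as GI50. TGI denotes the concentration required for complete inhibition of growth.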

Columns and labels:
Assay in all cases: growth of human tumour cells (NCI), 384-well format
U251 glioblastoma = system: U251 glioblastoma
T-47D breast = system: T-47D breast
UACC-62 melanoma = system: UACC-62 melanoma
KM12 colon = system: KM12 colon
DU-145 prostate = system: DU-145 prostate
CCRF-CEM leukemia = system: CCRF-CEM leukemia
OVCAR-4 ovarian = system: OVCAR-4 ovarian
SK-MEL-5 melanoma = system: SK-MEL-5 melanoma
BT-549 breast = system: BT-549 breast
MDA-MB-435 melanoma = system: MDA-MB-435 melanoma
NCI-H460 NSCLC = system: NCI-H460 NSCLC
MDA-MB-468 breast = system: MDA-MB-468 breast
HCT-15 colon = system: HCT-15 colon
SNB-75 CNS = system: SNB-75 CNS
HT29 colon = system: HT29 colon
NCI-H23 lung = system: NCI-H23 lung
NCI-H226 lung = system: NCI-H226 lung
OVCAR-8 ovarian = system: OVCAR-8 ovarian
SK-MEL-28 melanoma = system: SK-MEL-28 melanoma
HS 578T breast = system: HS 578T breast
SF-268 CNS = system: SF-268 CNS
A498 renal = system: A498 renal
MCF7 breast = system: MCF7 breast
HOP-62 NSCLC = system: HOP-62 NSCLC
MOLT-4 leukemia = system: MOLT-4 leukemia
CAKI-1 renal = system: CAKI-1 renal
A549 NSCLC = system: A549 NSCLC
RPMI-8226 leukemia = system: RPMI-8226 leukemia
OVCAR-3 ovarian = system: OVCAR-3 ovarian
IGROV1 ovarian = system: IGROV1 ovarian
SF-295 CNS = system: SF-295 CNS
SN12C renal = system: SN12C renal
HCC-2998 colon = system: HCC-2998 colon
HCT-116 colon = system: HCT-116 colon
UACC-257 melanoma = system: UACC-257 melanoma
HL-60(TB) leukemia = system: HL-60(TB) leukemia
OVCAR-5 ovarian = system: OVCAR-5 ovarian
HOP-92 NSCLC = system: HOP-92 NSCLC
SNB-19 CNS = system: SNB-19 CNS
RXF 393 renal = system: RXF 393 renal
SW-620 colon = system: SW-620 colon
PC-3 prostate = system: PC-3 prostate
NCI-H522 lung = system: NCI-H522 lung
786-0 renal = system: 786-0 renal
MDA-MB-231 breast = system: MDA-MB-231 breast
TK-10 renal = system: TK-10 renal
M14 melanoma = system: M14 melanoma
LOX IMVI melanoma = system: LOX IMVI melanoma
NCI-H322M lung = system: NCI-H322M lung
SK-OV-3 ovarian = system: SK-OV-3 ovarian
COLO 205 colon = system: COLO 205 colon
ACHN renal = system: ACHN renal
UO-31 renal = system: UO-31 renal
MALME-3M melanoma = system: MALME-3M melanoma
SF-539 CNS = system: SF-539 CNS
NCI/ADR-RES ovarian = system: NCI/ADR-RES ovarian
K-562 leukemia = system: K-562 leukemia
EKVX NSCLC = system: EKVX NSCLC

With `O=C(Nc1ccc(-c2ccnc(Nc3ccc(N4CCOCC4)cc3)n2)cc1)C1CCCN1` (stereo unspecified) the GI50 (U251 glioblastoma) was 3.9 µM, the TGI (U251 glioblastoma) was 17 µM and the GI50 (T-47D breast) was 5.28 µM. It also gave a TGI (T-47D breast) of 15.8 µM, a GI50 (UACC-62 melanoma) of 3.1 µM and a TGI (UACC-62 melanoma) of 16.8 µM. It also gave a GI50 (KM12 colon) of 8 µM, a TGI (KM12 colon) of 21.1 µM and a GI50 (DU-145 prostate) of 4.54 µM. The TGI (DU-145 prostate) was 15.4 µM, the GI50 (CCRF-CEM leukemia) was 1.79 µM and the TGI (CCRF-CEM leukemia) was 10.1 µM. It also gave a GI50 (OVCAR-4 ovarian) of 14.5 µM, a TGI (OVCAR-4 ovarian) of 28.7 µM and a GI50 (SK-MEL-5 melanoma) of 0.687 µM. It also gave a TGI (SK-MEL-5 melanoma) of 14.2 µM, a GI50 (BT-549 breast) of 3.78 µM and a TGI (BT-549 breast) of 14.1 µM. It also gave a GI50 (MDA-MB-435 melanoma) of 7.37 µM, a TGI (MDA-MB-435 melanoma) of 19.8 µM and a GI50 (NCI-H460 NSCLC) of 1.65 µM. The TGI (NCI-H460 NSCLC) was 10.9 µM, the GI50 (MDA-MB-468 breast) was 2.02 µM and the TGI (MDA-MB-468 breast) was 8.28 µM. For the same molecule, the GI50 (HCT-15 colon) was 1.25 µM, the TGI (HCT-15 colon) was 15 µM and the GI50 (SNB-75 CNS) was 4.17 µM. The TGI (SNB-75 CNS) was 15.3 µM, the GI50 (HT29 colon) was 2.22 µM and the TGI (HT29 colon) was 10.8 µM. The GI50 (NCI-H23 lung) was 13.7 µM, the TGI (NCI-H23 lung) was 27.1 µM and the GI50 (NCI-H226 lung) was 1.24 µM. It also gave a TGI (NCI-H226 lung) of 10.6 µM, a GI50 (OVCAR-8 ovarian) of 5.11 µM and a TGI (OVCAR-8 ovarian) of 18.1 µM. It also gave a GI50 (SK-MEL-28 melanoma) of 7.45 µM, a TGI (SK-MEL-28 melanoma) of 20.5 µM and a GI50 (HS 578T breast) of 4.67 µM. It also gave a TGI (HS 578T breast) of 16.7 µM, a GI50 (SF-268 CNS) of 0.204 µM and a TGI (SF-268 CNS) of 0.857 µM. It also gave a GI50 (A498 renal) of 6.48 µM, a TGI (A498 renal) of 18.9 µM and a GI50 (MCF7 breast) of 4.63 µM. It also gave a TGI (MCF7 breast) of 17.6 µM, a GI50 (HOP-62 NSCLC) of 11.4 µM and a TGI (HOP-62 NSCLC) of 24.7 µM. For the same molecule, the GI50 (MOLT-4 leukemia) was 0.439 µM, the TGI (MOLT-4 leukemia) was 1.56 µM and the GI50 (CAKI-1 renal) was 4.41 µM. For the same molecule, the TGI (CAKI-1 renal) was 15.6 µM, the GI50 (A549 NSCLC) was 4.69 µM and the TGI (A549 NSCLC) was 17.8 µM. It also gave a GI50 (RPMI-8226 leukemia) of 1.29 µM, a TGI (RPMI-8226 leukemia) of 10.5 µM and a GI50 (OVCAR-3 ovarian) of 12.8 µM. The TGI (OVCAR-3 ovarian) was 26.2 µM, the GI50 (IGROV1 ovarian) was 3.52 µM and the TGI (IGROV1 ovarian) was 16.7 µM. For the same molecule, the GI50 (SF-295 CNS) was 7.63 µM, the TGI (SF-295 CNS) was 21.3 µM and the GI50 (SN12C renal) was 3.6 µM. It also gave a TGI (SN12C renal) of 17 µM, a GI50 (HCC-2998 colon) of 2.46 µM and a TGI (HCC-2998 colon) of 8.76 µM. For the same molecule, the GI50 (HCT-116 colon) was 1.5 µM, the TGI (HCT-116 colon) was 11.6 µM and the GI50 (UACC-257 melanoma) was 2.46 µM. It also gave a TGI (UACC-257 melanoma) of 5.49 µM, a GI50 (HL-60(TB) leukemia) of 1.56 µM and a TGI (HL-60(TB) leukemia) of 3.22 µM. For the same molecule, the GI50 (OVCAR-5 ovarian) was 12.4 µM, the TGI (OVCAR-5 ovarian) was 25.6 µM and the GI50 (HOP-92 NSCLC) was 4.9 µM. It also gave a TGI (HOP-92 NSCLC) of 20.2 µM, a GI50 (SNB-19 CNS) of 11.4 µM and a TGI (SNB-19 CNS) of 26.6 µM. The GI50 (RXF 393 renal) was 1.6 µM, the TGI (RXF 393 renal) was 12.1 µM and the GI50 (SW-620 colon) was 5.25 µM. For the same molecule, the TGI (SW-620 colon) was 16 µM, the GI50 (PC-3 prostate) was 5.86 µM and the TGI (PC-3 prostate) was 19.7 µM. It also gave a GI50 (NCI-H522 lung) of 2.88 µM, a TGI (NCI-H522 lung) of 6.72 µM and a GI50 ([…]-0 renal) of 2.82 µM. For the same molecule, the TGI (786-0 renal) was 11.7 µM, the GI50 (MDA-MB-231 breast) was 0.87 µM and the TGI (MDA-MB-231 breast) was 17.3 µM. The GI50 (TK-10 renal) was 2.78 µM, the TGI (TK-10 renal) was 19.2 µM and the GI50 (M14 melanoma) was 5.63 µM. It also gave a TGI (M14 melanoma) of 18.2 µM, a GI50 (LOX IMVI melanoma) of 1.74 µM and a TGI (LOX IMVI melanoma) of 7.69 µM. It also gave a GI50 (NCI-H322M lung) of 10.4 µM, a TGI (NCI-H322M lung) of 22.8 µM and a GI50 (SK-OV-3 ovarian) of 3.29 µM. It also gave a TGI (SK-OV-3 ovarian) of 16.5 µM, a GI50 (COLO 205 colon) of 2.68 µM and a TGI (COLO 205 colon) of 17.4 µM. For the same molecule, the GI50 (ACHN renal) was 4.76 µM, the TGI (ACHN renal) was 17.6 µM and the GI50 (UO-31 renal) was 3.96 µM. For the same molecule, the TGI (UO-31 renal) was 15.8 µM, the GI50 (MALME-3M melanoma) was 3.88 µM and the TGI (MALME-3M melanoma) was 15.4 µM. The GI50 (SF-539 CNS) was 3.89 µM, the TGI (SF-539 CNS) was 15.2 µM and the GI50 (NCI/ADR-RES ovarian) was 7.15 µM. For the same molecule, the TGI (NCI/ADR-RES ovarian) was 21.9 µM, the GI50 (K-562 leukemia) was 1.39 µM and the TGI (K-562 leukemia) was 10.9 µM. The GI50 (EKVX NSCLC) was 11.9 µM and the TGI (EKVX NSCLC) was 24.9 µM.
